# Data taken from publication PMC5683375, “Vasculotide reduces pulmonary hyperpermeability in experimental pneumococcal pneumonia” (Critical Care, 2017).
# Entries after “also recorded” stand apart in the source; their conditions may differ.
# How the values were obtained:
# [1] = test system: human immunoglobulin G (IgG) Fc; assay: Tryptophan fluorescence spectroscopy, VT with human IgG Fc (specificity control); assay type: binding; conditions: recombinant human IgG Fc
# Procedure: Binding studies were carried out in 96 well plates (Brand-plates pureGrade reference 781607; BRAND GMBH + CO KG, Wertheim, Germany). Mouse Tie2Fc receptor and human immunoglobulin G (IgG) Fc were obtained from R&D Systems (Minneapolis, MN, USA). Dilutions were prepared in HyClone™ Dulbecco’s PBS (GE Healthcare Life Sciences, Mississauga, ON, Canada). The saturation binding curve was prepared with all ligand dilutions and receptors as 2× concentrations. Equal volumes of ligand and receptor were added to generate a final 1× concentration (500 nM Tie2Fc final concentration). Spectroscopic studies were performed on a SpectraMax M2 fluorometer (Molecular Devices, Sunnyvale, CA, USA). Measurements were taken at an excitation wavelength of 295 nm. Emission scans were set from 360 to 450 nm.
# mouse lungs = assay: Isolated perfused and ventilated mouse lung, PLY-induced permeability (ex vivo); parameters: species or system mouse (C57BL/6 N); conditions: VT 50 or 100 ng/ml, 15 minutes before PLY 1.4 μg/ml, BAL 30 minutes after PLY, HSA 0.04% in perfusate, n = 6-8
# Procedure: Mouse lungs were prepared as described previously. Briefly, anesthetized mice were tracheotomized and ventilated. After sternotomy and cannulation of the left atrium and pulmonary artery, lungs were perfused with 37 °C sterile Krebs-Henseleit hydroxyethyl-amylopectin buffer (1 ml/minute) and ventilated by negative pressure (Pexp −4.5, Pins −9.0 cmH2O) in a humidified chamber. After a 20-minute steady state, continuous infusion of VT (50 or 100 ng/ml) or PBS was commenced. Five minutes later, human serum albumin (HSA) was admixed to the perfusate (0.04%) for permeability quantification. Ten minutes thereafter, 1.4 μg/ml PLY was infused into the pulmonary artery for 1 minute. Bronchoalveolar lavage (BAL) was performed 30 minutes after PLY application, and HSA concentration was measured in bronchoalveolar fluid (BALF).
# [2] = test system: Streptococcus pneumoniae-infected mice; assay: Lung histology (edema formation, lung injury) in Streptococcus pneumoniae-infected mice; assay type: in vivo, mouse (C57BL/6 N)
# Procedure: Identical experiments were performed separately for histological analyses of the lungs. Mice were anesthetized 24 h or 48 h p.i. […] After ligation of the trachea, mouse lungs were removed and immediately immersion-fixed in 4% buffered formalin, embedded in paraffin, cut into 2-μm-thick sections, and stained with hematoxylin and eosin as described elsewhere. The degree of edema formation was assessed semiquantitatively (0 = no edema, 1 = minimal edema, 2 = mild edema, 3 = moderate edema, 4 = severe edema). Three evenly distributed sections per lung were microscopically evaluated to assess edema formation.
# hPMVEC = test system: hPMVEC; parameters: method as in PMID 21421750; conditions: cited from earlier work
# murine endotoxemia = conditions: cited from earlier work
# abdominal sepsis = test system: abdominal sepsis; parameters: method as in 3 sources, ref 26 = [26]; PMID 22040774; doi:10.1186/cc10523; 26. Kümpers P Gueler F David S Slyke PV Dumont DJ Park JK Bockmeyer CL Parikh SM Pavenstadt H Haller H The synthetic Tie2 agonist peptide Vasculotide protects against vascular leakage and reduces mort ||| ref 25, 26 = [25]; PMID 21421750; doi:10.1152/ajplung.00459.2010; 25. David S Ghosh CC Kumpers P Shushakova N Van Slyke P Khankin EV Karumanchi SA Dumont D Parikh SM Effects of a synthetic PEG-ylated Tie-2 agonist peptide on endotoxemic lung injury and mortality Am || [26]; PMID 22040774; doi:10.1186/cc10523; 26. Kümpers P Gueler F David S Slyke PV Dumont DJ Park JK Bockmeyer CL Parikh SM Pavenstadt H Haller H The synthetic Tie2 agonist peptide Vasculotide protects against vascular leakage and reduces mort ||| ref 26 (Kümpers et al.); conditions: cited from earlier work
# acute kidney injury = test system: acute kidney injury; parameters: method as in PMID 26911791; conditions: cited from earlier work
# [3] = test system: acute skin ionizing radiation in mice; conditions: cited from earlier work
# Tie2 = test system: Tie2; parameters: method as in PMID 18939935, PMID 21421750, PMID 22040774, PMID 26046800, PMID 25159192; conditions: other cell types/tissues; cited from earlier work
# [4] = test system: Streptococcus pneumoniae-infected mice; assay: BALF cytokines (multiplex assay) in Streptococcus pneumoniae-infected mice; conditions: VT 500 ng i.v., n = 8
# Procedure: (§1) For all experiments, female C57BL/6 N mice (8 to 10 weeks old, weighing 18 to 20 g; Charles River Laboratories, Sulzfeld, Germany) were used. Animals were housed under specific pathogen-free conditions under a 12–h/12-h light/dark cycle with free access to food and water.
# (§2) Mice were anesthetized with ketamine (80 mg/kg) and xylazine (25 mg/kg) and transnasally inoculated with 5 × 10^6 colony-forming units (CFU) of S. pneumoniae (NCTC7978) in 20 μl of sterile PBS as described before [35]. Sham-infected control mice received 20 μl of sterile PBS. After 22 h, 34 h, and 46 h, body weight and rectal temperature were measured, and different dosages of VT (100, 200, or 500 ng in 100 μl of PBS) or PBS were intravenously injected into the tail vein. Twenty-four or forty-eight hours postinfection (p.i.), mice were anesthetized (160 mg/kg ketamine and 75 mg/kg xylazine) and exsanguinated. […] Subsequently, lungs were flushed, and BAL was performed. To determine permeability, HSA (1 mg/75 μl) was intravenously infused 1 h before lung preparation, and the BALF/plasma ratio was calculated as described elsewhere [35]. […] Cytokines from BALF were measured with a multiplex assay (ProcartaPlex; eBioscience), and plasma levels of interleukin (IL)-6 (BD Biosciences) and KC (keratinocyte chemoattractant; R&D Systems) were quantified by ELISA.
# S. pneumoniae = assay: Bacterial burden in BALF and blood of Streptococcus pneumoniae-infected mice; conditions: VT 500 ng i.v., 24 h and 48 h p.i., n = 8
# Procedure: Mice were anesthetized with ketamine (80 mg/kg) and xylazine (25 mg/kg) and transnasally inoculated with 5 × 10^6 colony-forming units (CFU) of S. pneumoniae (NCTC7978) in 20 μl of sterile PBS as described before [35]. Sham-infected control mice received 20 μl of sterile PBS. After 22 h, 34 h, and 46 h, body weight and rectal temperature were measured, and different dosages of VT (100, 200, or 500 ng in 100 μl of PBS) or PBS were intravenously injected into the tail vein. Twenty-four or forty-eight hours postinfection (p.i.), mice were anesthetized (160 mg/kg ketamine and 75 mg/kg xylazine) and exsanguinated. […] Subsequently, lungs were flushed, and BAL was performed.
# S. pneumoniae (S. pn.) infected mice (5x106
# CFU/mouse) were intravenously (i.v.) treated with Vasculotide (VT; 500 ng) or PBS 22 h, 34
# h and 46 h post infection (p.i.). The bacterial burden was quantified in bronchoalveolar lavage
# fluid (BALF) and in blood 24 h or 48 h p.i.
# [5] = test system: Streptococcus pneumoniae-infected mice; assay: Plasma levels of IL-6 and KC (ELISA) in Streptococcus pneumoniae-infected mice; conditions: VT 500 ng i.v., n = 8
# Procedure: as §1, §2
substance,measurement,setting,value
Vasculotide [VT],fluorescence intensity / binding with human IgG Fc,[1],No saturation of binding is observed; also recorded: no dose-dependent increase in fluorescence intensity
same,PLY-induced lung hyperpermeability (HSA in BALF),mouse lungs,decreased PLY-induced pulmonary permeability; also recorded: significantly decreased hyperpermeability of mouse lungs; also recorded: dose-dependently decreased hyperpermeability of mouse lungs
same,lung injury (histology),"[2]; VT 500 ng i.v., 24 h and 48 h p.i., n = 3-4, vs PBS",reduced lung injury
same,"perivascular edema formation, 24 h p.i.","[2]; VT 500 ng i.v., 24 h p.i., n = 3-4, vs PBS",considerably reduced
same,"neutrophil infiltration of perivascular spaces, 48 h p.i.","[2]; VT 500 ng i.v., 48 h p.i., n = 3-4",without differences between the VT-treated and untreated infected groups
same,"alveolar edema formation, 48 h p.i.","[2]; VT 500 ng i.v., 48 h p.i., n = 3-4, vs PBS",diminished; also recorded: almost completely abolished (three of four mice); also recorded: nearly devoid of the additional massive alveolar edema formation
same,"perivascular edema, 48 h p.i.","[2]; VT 500 ng i.v., 48 h p.i., n = 3-4, vs untreated (PBS)",less perivascular edema than the untreated group
same,"edema or other pathological changes in perivascular spaces, sham-infected","[2]; sham-infected groups, VT 500 ng i.v. or PBS, 24 h and 48 h p.i.",no edema formation or other pathological changes
same,protection of endothelial cells from LPS-induced disruption,hPMVEC,protects hPMVEC after LPS stimulation; also recorded: protect endothelial cells from lipopolysaccharide (LPS)-induced disruption
same,endotoxemia-induced lung vascular leakage,murine endotoxemia,prevent endotoxemia-induced lung vascular leakage
same,protective effect in murine endotoxemia,murine endotoxemia; endotoxemia,protective effect
same,protective effect in murine endotoxemia and abdominal sepsis (sepsis part),abdominal sepsis; abdominal sepsis,protective effect
same,barrier disruption in experimental sepsis,abdominal sepsis,diminish barrier disruption
same,local and systemic inflammatory markers after abdominal sepsis,"abdominal sepsis; treatment started 2 h after cecal ligation and puncture, ref 26 (Kümpers et al.)",reductions in local and systemic inflammatory markers
same,barrier disruption in acute kidney injury,acute kidney injury,protective effect; also recorded: diminish barrier disruption
same,acute skin ionizing radiation,[3],protective effect
same,Tie2 phosphorylation,Tie2,confirms findings of other studies
same,BALF cytokine concentrations (except IL-12p40),[4]; 24 h and 48 h p.i.,not significantly affected; also recorded: not significantly reduced
same,"IL-12p40 levels in BALF, 48 h p.i.",[4]; 48 h p.i.,reduced; also recorded: decreased
same,bacterial burden in BALF,S. pneumoniae; BALF,did not affect; also recorded: not significantly reduced
same,bacterial burden in blood,S. pneumoniae; blood,did not affect; also recorded: not significantly reduced
same,"IL-6 and KC plasma levels, trend",[5]; 24 h and 48 h p.i.,slightly decreased by trend
same,"IL-6 plasma level, 24 h p.i.",[5]; 24 h p.i.,significantly reduced
same,"IL-6 plasma level, 48 h p.i.",[5]; 48 h p.i.,did not differ
